Like-named read-outs stand apart in the source and are kept apart here. Where no end group is shown, it is not given here.

Usually IC50 stands for the point on the concentration scale where inhibition reaches its midpoint. Broadly, the share remaining is what is left of the initial amount, in per cent.

Data set [1] deals with SCC-25 tumor cells. Put plainly: Mitochondrial membrane electrical potential (ΔΨm) by flow cytometry. Type of data set: cell-based. The settings on record: 24 h, IsCT-P and AC-AFPK-IsCT1 at IC50, others 100 µM, MitoRed, mean ± SD of three independent experiments. As for the experimental part: Figure 4 Analysis of mitochondrial electrical potential (ΔΨm) using flow cytometry following a 24 h treatment with synthetic analogs of IsCT1 peptides. The indicated cells were treated at the IC50 values obtained for the IsCT-P and AC-AFPK-IsCT1 peptides and at a concentration of 100 µM for the other peptides. (a) Representative histograms of cell distribution according to ΔΨm; (b) bar graph showing ΔΨm expressed as the mean ± SD of three independent experiments of SCC-9 tumor cells; (c) bar graph showing ΔΨm expressed as the mean ± SD of three independent experiments of SCC-25 tumor cells; (d) bar graph showing ΔΨm expressed as the mean ± SD of three independent experiments of normal FN1 cells; (e) bar graph showing ΔΨm expressed as the mean ± SD of three independent experiments of normal J774 cells. Statistical differences were obtained using ANOVA and Tukey–Kramer multiple comparison tests. * p < 0.05, ** p < 0.01, and *** p < 0.001 denote significance. ns = not significant.
Tumor (SSC-9 and SSC-25) and normal cells (FN1 and J-774) were subjected to treatment for a period of 24 h at the peptides’ IC50 concentrations. After treatment, the cells were trypsinized, centrifuged at 1200 rpm for 5 min, the supernatant was discarded, and the cells were resuspended in complete medium containing MitoRed™ (Sigma-Aldrich, USA) (200 nM/L). Subsequently, the samples were incubated in an incubator at 37 °C with 5% CO2 for 30 min. The tubes were then centrifuged, the supernatant was discarded, and the pellet was resuspended in 200 μL of FACS buffer. Readings were performed using a FACScanto flow cytometer (BD) with 10,000 events, and histograms were acquired and analyzed using FCS Express software 2.0.
For orientation: In flow cytometry, cells or beads pass a laser one at a time.

For a further data set, the system named is J774 cells. Put plainly: MTT cell viability. Type of data set: cell-based. The following applies: J774 normal macrophages, treatment 24 and 48 h (time of IC50 not given), absorbance 540 nm, N/IC50 = no IC50 for the tested concentrations, no toxicity. As for the experimental part:
(§1) Cell survival was assessed using an MTT assay. Tumor (SSC-9 and SSC-25) and normal cells (FN1 and J-774) were incubated in 96-well plates at a density of 10^5 cells/mL for 24 h. Subsequently, treatments were administered as described in Table 1 for 24 and 48 h. After the treatment period, the supernatant was aspirated and 100 μL of MTT at a concentration of 5 mg/mL (Calbiochem—Darmstadt, Germany) was added to the plate and incubated for 3 h at 37 °C with 5% CO2. Afterward, the content was removed and 200 μL of methanol was added to dissolve the formazan crystals. Absorbance was then measured at a wavelength of 540 nm using a microplate reader. The hemolysis assay was performed as previously reported.

Another data set relates to SCC-25 cells. Put plainly: MTT cell viability. Type of data set: cell-based. The settings on record: treatment 24 and 48 h (time of IC50 not given), absorbance 540 nm, N/IC50 = no IC50 for the tested concentrations, no toxicity. As for the experimental part:
as §1

The subject of the next data set is SCC-9 cells. Put plainly: MTT cell viability. The following applies: treatment 24 and 48 h (time of IC50 not given), absorbance 540 nm, N/IC50 = no IC50 for the tested concentrations, no toxicity. The class given is cell-based. The procedure:
as §1

The next data set deals with FN1 cells. As to the kind of experiment: MTT cell viability. The class given is cell-based. The settings on record: FN1 normal human fibroblasts, treatment 24 and 48 h (time of IC50 not given), absorbance 540 nm, N/IC50 = no IC50 for the tested concentrations, no toxicity. The procedure: as §1
A short description of data set [2]: Resistance to degradation in 25% fetal bovine serum. The class given is in vitro ADME. The following applies: 25% fetal bovine serum in water, 37 °C, HPLC peak area vs t = 0 h, triplicate; for remaining at 0.5 h: read-out: peptide remaining intact after 30 min; for remaining at 6 h: read-out: peptide remaining intact after 6 h. The procedure:
Figure 1 (a) Helical wheel projections of the IsCT1, AFPK-IsCT1, KKK-IsCT1, and IsCT-P peptides were generated using the Heliquest server (https://heliquest.ipmc.cnrs.fr/, accessed on 15 July 2024). In these projections, yellow, gray, and green circles represent hydrophobic amino acids, while blue and pink circles denote hydrophilic amino acids. (b) Resistance to degradation assays for all peptides were performed over 6 h in a solution containing 25% fetal bovine serum (FBS). These experiments were conducted in triplicate and aliquots were collected for analysis at 0, 0.5, 1, 2, 4, and 6 h of incubation. The aliquots were subsequently analyzed using high-performance liquid chromatography (HPLC) after each incubation period. The degradation kinetics of the peptides were determined by comparing the integrated peak area associated with the peptide at the start of the experiment (t = 0 h) with the integrated peak area at subsequent time points (t = 0.5, 1, 2, 4, 6 h). (c) The hemolytic activity of synthetic peptides analogous to IsCT1 was assessed on human erythrocytes within a concentration range of 0.13–128 μmol L^−1 in phosphate-buffered saline (PBS) (n = 3). A 1% solution of sodium dodecyl sulfate (SDS) in PBS served as a positive control, while PBS alone was used as a negative control. (d) A table summarizing the sequences, molecular weights, and physicochemical properties of the IsCT1, AFPK-IsCT1, and KKK-IsCT1 peptides. […]
Stability assays were conducted using GIBCO (Waltham, MA, USA) fetal bovine serum diluted to 25% in water, as described by Torres et al.. Briefly, peptide solutions were added to the serum solution and maintained at 37 °C. The experiments were carried out in triplicate and samples were taken at 0, 0.5, 1, 2, 4, and 6 h post incubation. The degradation kinetics were monitored using liquid chromatography and the percentage of remaining peptides was calculated by integrating the peak area of the peptide.

Data set [3] has as its system SCC-25 tumor cells. As to the kind of experiment: Cell cycle phase and DNA fragmentation analysis (flow cytometry). The following applies: 24 h, IsCT-P and AC-AFPK-IsCT1 at IC50, others 100 µM. The class given is cell-based. The procedure:
(§2) Figure 3 Analysis of cell cycle phases following a 24 h treatment with synthetic analogs of IsCT1 peptides. The indicated cells were treated at the IC50 values obtained for the IsCT-P and AC-AFPK-IsCT1 peptides and at a concentration of 100 µM for the other peptides. (a) Representative histograms of cell distribution across cell cycle phases; (b) bar graph showing the correlation of the effect on cell cycle and fragmented DNA, expressed as the mean ± SD of three independent SCC-9 tumor cell experiments; (c) bar graph showing the correlation of the effect on cell cycle and fragmented DNA, expressed as the mean ± SD of three independent experiments on SCC-25 tumor cells; (d) bar graph showing the correlation of the effect on cell cycle and fragmented DNA, expressed as the mean ± SD of three independent experiments of normal FN1 cells; (e) bar graph showing the correlation of the effect on cell cycle and fragmented DNA, expressed as the mean ± SD of three independent experiments of normal J774 cells. Statistical differences were obtained using ANOVA and Tukey–Kramer multiple comparison tests. * p < 0.05, ** p < 0.01, and *** p < 0.001 denote significance. ns = not significant.
(§3) Tumor (SSC-9 and SSC-25) and normal cells (FN1 and J-774) were subjected to treatment for 24 h at the peptides’ IC50 concentrations. Treated and control cells were trypsinized and centrifuged at 1200 rpm for 5 min. The resulting pellet was resuspended in 1 mL of cold buffer, followed by the addition of 3 mL of absolute ethanol. Samples were stored at −20 °C for 24 h. The samples were then centrifuged at 1500 rpm for 10 min and resuspended in 200 μL of FACS buffer containing 0.1% Triton X-100 (Sigma-Aldrich, St. Louis, MO, USA), 50 μg/mL propidium iodide (Sigma-Aldrich), and 1 µL of RNAse (200×). This mixture was kept at room temperature and protected from light for 30 min. The samples were then transferred to cytometry tubes and analyzed using a FACScanto flow cytometer (BD) with 10,000 events, and histograms were acquired and analyzed using ModFit LT 5.0 software.

For the next data set, the system named is SCC-9 tumor cells. The data set is described as above. Type of data set: cell-based. The settings on record: 24 h, 100 µM, compared to the control. As for the experimental part:
as §2, §3

Regarding ALGKFWPKIKSLF-NH2 [AFPK-IsCT1], the “decrease in ΔΨm” value with SCC-25 tumor cells [1] was found to be 40.5 ± 0.4%. Moreover, the IC50 result in the data set on J774 cells, with SCC-25 cells, in the data set with SCC-9 cells and with FN1 cells was “N/IC50” each time. Besides, the fraction remaining at 0.5 h in data set [2] (30 min) was 50%. For the same substance, in data set [2], the share remaining at 6 h is 8%. The “fragmented DNA” value in the data set on SCC-25 tumor cells [3] is reported as “No significant DNA fragmentation”. Further, in the data set on SCC-9 tumor cells, the “increase in fragmented DNA” value was determined as 13.6%.

Turning to H-ILKKIWKGKKSLF-NH2 [KKK-IsCT1], the IC50 entry in the data set with J774 cells, in the data set with SCC-25 cells, in the data set on SCC-9 cells and in the data set with FN1 cells was “N/IC50” throughout. Also, the share remaining at 0.5 h in data set [2] (30 min) was determined as 50%. Besides, the fraction remaining at 6 h in data set [2] was 8%. Besides, the “fragmented DNA” value in the data set with SCC-25 tumor cells [3] worked out at 19%.

With Ac-ILKKIWKGKKSLF-NH2 [AC-KKK-IsCT1], the IC50 entry was “N/IC50” in the data set with J774 cells, “N/IC50” with SCC-25 cells, “N/IC50” in the data set on SCC-9 cells and 100 µM in the data set on FN1 cells (read-out: IC50). This substance had a metabolised at 0.5 h in data set [2] (30 min) of 50%. The “time to complete degradation” value in data set [2] is not above 4 h. Further, the “fragmented DNA” value in the data set on SCC-25 tumor cells [3] stood at 12.4%.

The values are drawn from publication PMC11478212, “Antitumoral and Antiproliferative Potential of Synthetic Derivatives of Scorpion Peptide IsCT1 in an Oral Cavity Squamous Carcinoma Model” (Molecules, 2024).
